Measured values from patent publication US9815851B2, “Pyrrolo carboxamides as modulators of orphan nuclear receptor RAR-related orphan receptor-gamma (RORγ, NR1F3) activity and for the treatment of chronic inflammatory and autoimmune diseases” (PHENEX PHARMACEUTICALS AG, priority 2011, dated 2017).
Like-named read-outs stand apart in the source and are kept apart here.

Legend:
[1] = molecular target: T1, RORγ ligand binding domain (LBD) (Homo sapiens, UniProt P51449); experiment: TR-FRET Activity Assay (ligand sensing, RORγ-LBD / coactivator peptide interaction, LANCE); format: biochemical
T1 construct: made in house; host or cells: E. coli BL-21 (BL3), vector pDEST15
T1 sequence (P51449 269-508 limits assumed): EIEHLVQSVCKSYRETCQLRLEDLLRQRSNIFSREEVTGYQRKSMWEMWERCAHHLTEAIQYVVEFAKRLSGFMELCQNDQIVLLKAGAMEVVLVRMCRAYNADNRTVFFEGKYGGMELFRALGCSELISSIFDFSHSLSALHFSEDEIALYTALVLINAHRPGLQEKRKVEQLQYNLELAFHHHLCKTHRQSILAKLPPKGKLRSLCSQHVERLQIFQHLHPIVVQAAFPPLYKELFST

RORγ = molecular target: T2, RORγ (UniProt P51449); experiment: RORγ Gal4 Reporter Gene Assay in 293T cells (firefly and renilla luciferase); format: cell-based, human
T2 sequence (P51449 1-518): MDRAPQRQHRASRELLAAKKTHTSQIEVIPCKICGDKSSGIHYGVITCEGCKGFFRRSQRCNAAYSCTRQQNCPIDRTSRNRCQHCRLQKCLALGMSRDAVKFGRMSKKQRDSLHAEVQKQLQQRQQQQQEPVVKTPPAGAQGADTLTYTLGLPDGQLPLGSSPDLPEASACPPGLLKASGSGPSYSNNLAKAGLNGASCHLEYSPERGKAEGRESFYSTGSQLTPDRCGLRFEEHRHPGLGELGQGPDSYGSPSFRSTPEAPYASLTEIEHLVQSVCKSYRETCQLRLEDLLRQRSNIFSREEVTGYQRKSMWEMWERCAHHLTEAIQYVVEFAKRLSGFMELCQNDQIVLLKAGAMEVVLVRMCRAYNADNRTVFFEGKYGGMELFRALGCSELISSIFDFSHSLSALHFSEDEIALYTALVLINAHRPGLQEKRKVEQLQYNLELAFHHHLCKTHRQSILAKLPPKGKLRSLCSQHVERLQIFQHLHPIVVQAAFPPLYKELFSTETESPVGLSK

[2] = first value of the cell FRET/FF/REN, TR-FRET activity assay, read-out: pIC50 (FRET) (converted)
[3] = second value of the cell, Gal4 reporter gene assay in 293T cells, firefly luciferase
[4] = third value of the cell, Gal4 reporter gene assay in 293T cells, renilla normalised luciferase

Row | Compound | IC50 [1] [nM] | pIC50 (FF) (RORγ) | pIC50 (REN) (RORγ) | IC50 [1, 2] [nM] | pIC50 (FF) (RORγ; [3]) | pIC50 (REN) (RORγ; [4])
1 | Cc1c(C(=O)NCC(C)(C)c2nnn[nH]2)cc(-c2cc(C(C)(C)O)cc(C3(C)CC3)c2)n1CC1CCCCC1 [17/309] | 794 | 6.1/6.7/6.8 | 6.1/6.7/6.8 | – | – | –
2 | Cc1c(C(=O)NCC(C)(C)c2noc(=O)[nH]2)cc(-c2cc(C(C)(C)O)cc(C3(C)CC3)c2)n1CC1CCCCC1 [17/310] | – | – | – | 1000 | 7.4 | 7.6
3 | Cc1c(C(=O)N[C@H]2C[C@H](C(=O)O)C2)cc(-c2cc(C3(C)CC3)nc(C(C)(C)C)n2)n1CC1CCCCC1 [17/311] | – | – | – | 794 | 7.0 | 7.2
4 | Cc1c(C(=O)N[C@H]2C[C@H](C(=O)O)C2)cc(-c2cc(C(C)(C)C)nc(C3(C)CC3)n2)n1CC1CCCCC1 [17/312] | – | – | – | 316 | 7.2 | 7.3
5 | Cc1c(C(=O)NCC(C)(C)O)cc(-c2cc(C(C)(C)O)cc(C3(C)CC3)c2)n1CC1CCCCC1 [17/313] | 1000 | 6.0/6.8/6.8 | 6.0/6.8/6.8 | – | – | –
6 | Cc1c(C(=O)NCC2(O)CCOCC2)cc(-c2cc(C(C)(C)O)cc(C3(C)CC3)c2)n1CC1CCCCC1 [17/314] | – | – | – | 1000 | 7.2 | 7.1
7 | Cc1c(C(=O)NCCS(N)(=O)=O)cc(-c2cc(C(C)(C)O)cc(C3(C)CC3)c2)n1CC1CCCCC1 [17/315] | – | – | – | 1260 | 6.5 | 6.5
8 | Cc1c(C(=O)NCCN2CCOCC2)cc(-c2cc(C(C)(C)O)cc(C3(C)CC3)c2)n1CC1CCCCC1 [17/316] | – | – | – | 2510 | 6.3 | 6.3
9 | Cc1c(C(=O)NCCS(C)(=O)=O)cc(-c2cc(C(C)(C)O)cc(C3(C)CC3)c2)n1CC1CCCCC1 [17/317] | – | – | – | 2510 | 6.5 | 6.5
10 | Cc1c(C(=O)NCC2(C(N)=O)CCOCC2)cc(-c2cc(C(C)(C)O)cc(C3(C)CC3)c2)n1CC1CCCCC1 [17/318] | – | – | – | 2000 | 7.7 | 7.6
11 | Cc1c(C(=O)NCC2(O)CCS(=O)(=O)CC2)cc(-c2cc(C(C)(C)O)cc(C3(C)CC3)c2)n1CC1CCCCC1 [17/319] | – | – | – | 2000 | 6.5 | 6.6
12 | Cc1c(C(=O)NCC2CCS(=O)(=O)CC2)cc(-c2cc(C(C)(C)O)cc(C3(C)CC3)c2)n1CC1CCCCC1 [17/320] | 1580 | 5.8/7.3/7.3 | 5.8/7.3/7.3 | – | – | –
13 | Cc1c(C(=O)NC2CCS(=O)(=O)CC2)cc(-c2cc(C(C)(C)O)cc(C3(C)CC3)c2)n1CC1CCCCC1 [17/321] | – | – | – | 1000 | 7.3 | 7.3
14 | Cc1c(C(=O)NC2CCOCC2)cc(-c2cc(C(=O)NC(C)(C)C)cc(C(C)(C)O)c2)n1CC1CCCCC1 [17/322] | – | – | – | 3980 | 5.9 | 6.0
15 | Cc1c(C(=O)NC2CCOCC2)cc(-c2cc(C(=O)NC(C)C)cc(C(C)(C)O)c2)n1CC1CCCCC1 [17/323] | – | – | – | 7940 | 5.6 | 5.7
16 | COC(C)(C)c1cc(C(=O)NC(C)(C)C)cc(-c2cc(C(=O)NC3CCOCC3)c(C)n2CC2CCCCC2)c1 [17/324] | 3160 | 5.5/6.8/6.8 | 5.5/6.8/6.8 | – | – | –
17 | COC(C)(C)c1cc(-c2cc(C(=O)NC3CCOCC3)c(C)n2CC2CCCCC2)cc2c1OCCC21CC1 [17/325] | 2510 | 5.6/7.1/7.2 | 5.6/7.1/7.2 | – | – | –
18 | Cc1c(C(=O)N[C@H]2C[C@H](C(=O)O)C2)cc(-c2cc(C(C)(C)C)cc(C3(C)CC3)c2)n1CC1CCCCC1 [17/326] | – | – | – | 1000 | 7.8 | 7.9
19 | Cc1c(C(=O)NCC(C)(C)C(=O)O)cc(-c2ccc(S(=O)(=O)NC(C)(C)C)c(C(C)(C)O)c2)n1CC1CCCCC1 [17/327] | – | – | – | 794 | 6.8 | 6.9
20 | Cc1c(C(=O)N[C@H]2C[C@H](C(=O)O)C2)cc(-c2ccc(S(=O)(=O)NC(C)(C)C)c(C(C)(C)O)c2)n1CC1CCCCC1 [17/328] | – | – | – | 501 | 6.6 | 6.6
21 | Cc1c(C(=O)NCC(C)(C)C(=O)O)cc(-c2cc(C(=O)NC(C)(C)C)cc(C(C)(C)C)c2)n1CC1CCCCC1 [17/329] | – | – | – | 2510 | 6.8 | 6.9

Row | Compound | IC50 [1] [nM] | pIC50 (FF) (RORγ) | pIC50 (REN) (RORγ) | IC50 [1, 2] [nM] | pIC50 (FF) (RORγ; [3]) | pIC50 (REN) (RORγ; [4])
22 | Cc1c(C(=O)N[C@H]2C[C@H](C(=O)O)C2)cc(-c2cc(C(=O)NC(C)(C)C)cc(C(C)(C)C)c2)n1CC1CCCCC1 [17/330] | – | – | – | 2510 | 7.3 | 7.4
23 | Cc1c(C(=O)NCCc2noc(=O)[nH]2)cc(-c2ccc(S(=O)(=O)NC(C)(C)C)c(C(C)(C)C)c2)n1CC1CCCCC1 [17/331] | – | – | – | 1260 | 6.6 | 6.5
24 | Cc1c(C(=O)NCCc2noc(=O)[nH]2)cc(-c2ccc(S(=O)(=O)NC(C)(C)C)c(C(F)(F)F)c2)n1CC1CCCCC1 [17/332] | – | – | – | 200 | 6.4 | 6.4
25 | Cc1c(C(=O)NCCc2noc(=O)[nH]2)cc(-c2ccc(S(=O)(=O)NC(C)(C)C)c(C(C)(C)O)c2)n1CC1CCCCC1 [17/333] | – | – | – | 398 | 6.4 | 6.3
26 | Cc1c(C(=O)NCCc2nn[nH]n2)cc(-c2ccc(S(=O)(=O)NC(C)(C)C)c(C(C)(C)C)c2)n1CC1CCCCC1 [17/334] | – | – | – | 1260 | 5.8 | 5.9
27 | Cc1c(C(=O)NCCc2nn[nH]n2)cc(-c2ccc(S(=O)(=O)NC(C)(C)C)c(C(F)(F)F)c2)n1CC1CCCCC1 [17/335] | – | – | – | 316 | 5.5 | 5.6
28 | Cc1c(C(=O)NCCc2nn[nH]n2)cc(-c2ccc(S(=O)(=O)NC(C)(C)C)c(C(C)(C)O)c2)n1CC1CCCCC1 [17/336] | – | – | – | 1000 | < 4.7 | < 4.7
29 | Cc1c(C(=O)NC2CCOCC2)cc(-c2cc(C(=O)NC(C)(C)C)cc(C3(C)CC3)c2)n1CC1CCCCC1 [17/337] | – | – | – | 1000 | 7.7 | 7.8
30 | Cc1c(C(=O)NCC(C)(C)C(=O)O)cc(-c2cc(C(=O)NC(C)(C)C)cc(C3(C)CC3)c2)n1CC1CCCCC1 [17/338] | – | – | – | 3160 | 7.2 | 7.2
31 | Cc1c(C(=O)N[C@H]2C[C@H](C(=O)O)C2)cc(-c2cc(C(=O)NC(C)(C)C)cc(C3(C)CC3)c2)n1CC1CCCCC1 [17/339] | – | – | – | 1260 | 7.6 | 7.7
32 | Cc1c(C(=O)NCCC(C)(C)C(=O)O)cc(-c2cc(C(=O)NC(C)(C)C)cc(C3(C)CC3)c2)n1CC1CCCCC1 [17/340] | – | – | – | 1580 | 7.1 | 7.1
33 | Cc1c(C(=O)NCC2(O)CCOCC2)cc(-c2cc(C(=O)NC(C)(C)C)cc(C3(C)CC3)c2)n1CC1CCCCC1 [17/341] | 794 | 6.1/7.4/7.6 | 6.1/7.4/7.6 | – | – | –
34 | Cc1c(C(=O)N2CC(N3CCOCC3)C2)cc(-c2cc(C(C)(C)C)cc(C3(C)CC3)c2)n1CC1CCCCC1 [17/344] | – | – | – | 631 | 7.3 | 7.5
35 | Cc1c(C(=O)NCC2CCN(S(C)(=O)=O)CC2)cc(-c2cc(C(C)(C)C)cc(C3(C)CC3)c2)n1CC1CCCCC1 [17/345] | – | – | – | 316 | 7.3 | 7.4
36 | Cc1c(C(=O)NCCN2CCN(C)CC2)cc(-c2cc(C(C)(C)C)cc(C3(C)CC3)c2)n1CC1CCCCC1 [17/346] | 5010 | 5.3/<4.7/<4.7 | 5.3/<4.7/<4.7 | – | – | –
37 | Cc1c(C(=O)NCCN2CCN(S(C)(=O)=O)CC2)cc(-c2cc(C(C)(C)C)cc(C3(C)CC3)c2)n1CC1CCCCC1 [17/347] | – | – | – | 398 | 6.5 | 6.5
38 | Cc1c(C(=O)NCC(C)(C)O)cc(-c2cc(OC(F)(F)F)cc(C3(C)CC3)c2)n1CC1CCCCC1 [17/348] | – | – | – | 316 | 6.9 | 7.0
39 | Cc1c(C(=O)NCC(C)(C)O)cc(-c2cc(OC(F)(F)F)cc(C(=O)NC(C)(C)C)c2)n1CC1CCCCC1 [17/349] | – | – | – | 631 | 6.8 | 6.8
40 | Cc1c(C(=O)N[C@H]2C[C@H](C(=O)O)C2)cc(-c2cc(OC(F)(F)F)cc(C3(C)CC3)c2)n1CC1CCCCC1 [17/350] | – | – | – | 1000 | 7.7 | 7.7
41 | Cc1c(C(=O)N[C@H]2C[C@H](C(=O)O)C2)cc(-c2cc(OC(F)(F)F)cc(C(=O)NC(C)(C)C)c2)n1CC1CCCCC1 [17/351] | – | – | – | 2000 | 6.8 | 6.9
